Series [1] deals with naïve CD8+ T cells of healthy A2 donors. In words: In vitro priming of naive cytotoxic T cells from PBMC of normal A2+ donors, 51Cr release on T2 cells.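 On all read-outs here: CTL lines primed by co-culturing PBMC with autologous antigen-pulsed mature dendritic cells, 12 lines per antigen, lysis net of unpulsed T2 cell background.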 In kind it is cell-based, human. Particulars: for number of specific CTL lines out of the 12, Donor 1 / number of specific CTL lines out of the 12, Donor 2 / number of specific CTL lines out of the 12, Donor 3 / number of specific CTL lines out of the 12, Donor 4 / number of specific CTL lines out of the 12, Donor 5 / number of specific CTL lines out of the 12, Donor 6 / number of specific CTL lines out of the 12, Donor 7: net specific lysis ≧20%, day 10, T2 targets 3:1 E/T; for Total number of specific CTL lines: sum over 7 donors.
Description: Seven A2+ healthy individuals, never exposed to HBV or HIV, between ages 40 and 57, were included in the study. Autologous, antigen-pulsed, mature dendritic cells (DC) were used as antigen presenting cells (APCs) for the in vitro priming. Autologous DC were cultured with granulocyte/macrophage colony stimulating factor (GM-CSF) (kindly provided by Kirin, Japan) and interleukin (IL) 4 (Peprotech, Rocky Hill, N.J.).
DC were previously pulsed for 2 hours with glycopeptides(s) or peptide(s). Each well defined an individual CTL line.
By using the culture conditions and IL2 regimen optimized over several years in our laboratory, the large majority of the PBMC in culture are T cells at day 10. CD8+ T cells represent the majority.
T cell cultures were tested for specificity at day 10 in a ^51Cr release assay. T2 cells (A2) were used as targets at 3:1 E/T ratio. T cell lines primed in vitro with glycopeptides were tested for the ability to recognize T2 cells pulsed with the glycopeptides, or the peptide backbones, or to untreated T2 cells (background control). Peptide-primed T cell lines were also tested for their ability to respond to peptides and cross-react with the corresponding GalNAc-O-S modified sequence.
CTL lines showing a net specific lysis ≧20% were considered specific. Carbohydrate recognition was defined as a specific response to the glycopeptides, after subtracting the background and the specific response to the corresponding peptide backbone.

In another series the test system is C57BL/6 mice. As to the kind of experiment: Immunization of wild type C57BL/6 mice, generation of cytotoxic T cells. Conditions: wild type C57BL/6 mice (H-2^b). Type of series: in vivo, mouse.
Series [2] has as its system β-Gal-[1->3]-α-GalNAc-O-specific T cell clones. In words: 51Cr release cytotoxicity assay with TF-specific CTL clones on antigen-pulsed EL-4 targets (fine specificity, cross-reactivity). Type of series: cell-based, mouse. Conditions: clones B1, C3, D4, 5:1 E/T. As for the experimental part: CTL clones were generated in C57BL/6 mice (H-2^b) immunized with a K^b-restricted designer alanine-rich glycopeptide sequence that contained TF, sequence: • AIIA(β-Gal-[1->3]-α-GalNAc-O-serine)FAAL
TF-specific CTL clones were tested for the capacity to cross-react to a glycopeptide with a completely unrelated sequence but carrying the sugar at the same position (5 within a 9mer). For this analysis, we designed a modified Sendai virus immunodominant epitope NP 324-332 (5N->5S-TF), sequence: • FAPG (β-Gal-[1->3]-α-GalNAc-O-S)YPAL This epitope is an ideal proof concept because when bonded to K^b class I MHC molecules it exposes position 5 as a major TcR contact.
To define the role of the glycosylated amino acid linker for sugar recognition by T cells, the same T cell clones were also tested for cross-reactivity to three alanine-rich glycopeptides with identical sequences as the immunogen: AIIA(β-Gal-[1->3]-α-GalNAc-O-serine)FAAL, but where TF was linked to different amino acid residues.
T cells were studied with a classic ^51Cr release cytotoxicity assay at a 5:1 effector/target (E/T) ratio. The EL-4 thymoma cell line (H-2)^b, class II MHC negative, was used as the target in these experiments. The cytolytic response to EL-4 cells in the absence of glycopeptides (background) was also assayed, and subtracted, to quantify the net specific lysis. […]

In another series the test system is A2 class I MHC molecules. As to the kind of experiment: A2 binding affinity of glycopeptides. Also noted: species or system human.
For series [3] the following is noted: clear solution with no visible particulates.
Excerpt: Solubility is defined as a clear solution with no visible particulates.
The next series deals with cancer patients. Conditions: variety of different formulations; cited from earlier work.
The subject of another series is MUC1/MT transgenic mice. In words: Glycopeptide vaccination of tumor bearing MUC1/MT transgenic mice, CTL activity by 51Cr release on EL-4. Conditions: MUC1/MT mice 14, 18, 24 weeks old; glycopeptide in IFA; EL-4 targets.

Where a SMILES comes first, the peptide text is derived from it. Where no end group is shown, it is not given here. The star is where a group is joined. X1 = CC(=O)N[C@@H]1[C@@H](O[C@@H]2O[C@H](CO)[C@H](O)[C@H](O)[C@H]2O)[C@@H](O)[C@@H](CO)O[C@@H]1*; GalNAc = N-acetylgalactosamine (GalNAc, 2-acetamido-2-deoxy-D-galactopyranose); αGalNAc = CC(=O)N[C@@H]1[C@@H](O)[C@@H](O)[C@@H](CO)O[C@@H]1*

Description for C57BL/6 mice: These studies were performed in vivo by injecting Tn-containing glycopeptides in: 1) wild type mice (C57BL/6, H-2^b); and 2) MUC1/MT double transgenic mice (H-2^b) that develop spontaneous tumors expressing the Tn carbohydrate molecule within 12 weeks of age.
Description for MUC1/MT transgenic mice: In these experiments, MUC1/MT mice have been chosen according to age and tumor development.
Seven days after priming, mice were sacrificed. Splenocytes from each experimental group were pooled and stimulated in vitro in the presence of the glycopeptide that was used as immunogen and irradiated B cell blasts as antigen presenting cells (APCs). After 5 days in culture, cells were collected, purified over Ficoll gradient, and T cell blasts were cultured in complete RPMI conditioned with supernatant from ConA-activated splenocytes as an IL2 source. Two days later (day 7 in culture) T cells were tested for CTL activity.
Carbohydrate and peptide specificity were studied in a standard ^51Cr release assay using the lymphoma EL-4 (H-2^b) cell line as target at different effector: target ratios (E/T) in duplicate, with and without antigens. […] Net specific lysis has been calculated by subtracting the cytolytic response to EL-4 cells alone without antigens defined as background. Data were calculated as % cytotoxicity=[(sample-spontaneous release)/(maximum release-spontaneous release)]×100.
Specificity of primary CTL cultures tested in a ^51Cr release assay is shown. […] EL-4 cells plated with T cell blasts in the absence of antigens have been assessed in duplicate at every E/T ratio to determine the extent of non-specific lysis. […]

With `CC(=O)N[C@H]1[C@@H](OC[C@H](NC(=O)[C@@H]2CCCN2C(=O)[C@H](CC(C)C)NC(=O)[C@@H](N)Cc2ccccc2)C(=O)N[C@@H](CC(=O)O)C(=O)N[C@@H](Cc2ccccc2)C(=O)N[C@@H](Cc2ccccc2)C(=O)N2CCC[C@H]2C(=O)N[C@@H](CO)C(=O)N[C@H](C(=O)O)C(C)C)O[C@H](CO)[C@H](O)[C@@H]1O`, in series [1], the “number of specific CTL lines out of the 12, Donor 1” value (from here on “number … Donor 1”) is listed as 5; the “number of specific CTL lines out of the 12, Donor 2” value (shortened to “number … Donor 2”) came to 5; the “number of specific CTL lines out of the 12, Donor 3” value (“number … Donor 3” below) worked out at 1; the “number of specific CTL lines out of the 12, Donor 4” value (from here on “number … Donor 4”) is reported as 3. For the same compound, in series [1], the “number of specific CTL lines out of the 12, Donor 5” value (shortened to “number … Donor 5”) was found to be 4; the “number of specific CTL lines out of the 12, Donor 6” value (“number … Donor 6” below) amounted to 2; the “number of specific CTL lines out of the 12, Donor 7” value (from here on “number … Donor 7”) was determined as 4; the “Total number of specific CTL lines” value turned out to be 24.
As for `CC[C@H](C)[C@H](NC(=O)[C@H](C)N)C(=O)N[C@H](C(=O)N[C@@H](C)C(=O)N[C@@H](CO[C@H]1O[C@H](CO)[C@H](O)[C@H](O[C@@H]2O[C@H](CO)[C@H](O)[C@H](O)[C@H]2O)[C@H]1NC(C)=O)C(=O)N[C@@H](Cc1ccccc1)C(=O)N[C@@H](C)C(=O)N[C@@H](C)C(=O)N[C@@H](CC(C)C)C(=O)O)[C@@H](C)CC` [AIIA(β-Gal-[1->3]-α-GalNAc-O-serine)FAAL] (H-AIIAS(X1)FAAL-OH; N-terminus and C-terminus assumed), the “cytotoxic T cell response generated by immunization” value in the series with C57BL/6 mice is “generate primary and memory TF-specific cytotoxic T cells in C57BL/6 mice in the absence of Th”. Further, the “cytolytic response of TF-specific CTL clones to antigen (51Cr release, net lysis)” value in series [2] is “high affinity/avidity”.
As for `CC(=O)N[C@H]1[C@@H](OC[C@H](NC(=O)[C@H](C)NC(=O)[C@H](CC(C)C)NC(=O)[C@H](C)N)C(=O)N[C@@H](C)C(=O)N[C@@H](C)C(=O)N[C@@H](C)C(=O)N[C@@H](C)C(=O)N[C@H](C(=O)O)C(C)C)O[C@H](CO)[C@H](O)[C@@H]1O` [ALA(GALNAc-O-S)SAAAAV], in the series with A2 class I MHC molecules, the “A2 affinity (in words)” value was “affinity slightly higher than the corresponding peptide but still efficiently”.
The same measure, in the same setting: to `CC(=O)N[C@H]1[C@@H](OC[C@H](NC(=O)CNC(=O)[C@H](CC(C)C)NC(=O)[C@H](C)N)C(=O)N[C@H](C(=O)N[C@@H](C)C(=O)N2CCC[C@H]2C(=O)N2CCC[C@H]2C(=O)N[C@H](C(=O)O)C(C)C)[C@@H](C)O)O[C@H](CO)[C@H](O)[C@@H]1O` [ALG(Tn-S)TAPPV] belongs “very high affinity”.
Consider `CC(=O)N[C@H]1[C@@H](O[C@H](C)[C@H](NC(=O)[C@H](CC(=O)O)NC(=O)[C@@H]2CCCN2C(=O)[C@H](Cc2ccccc2)NC(=O)[C@H](CC(C)C)NC(=O)[C@@H](N)Cc2ccccc2)C(=O)N[C@@H](CCCNC(=N)N)C(=O)N[C@@H](C)C(=O)N[C@H](C(=O)O)C(C)C)O[C@H](CO)[C@H](O)[C@@H]1O` [FLFPD(GalNAc-T)RAV] (H-FLFPDT(αGalNAc)RAV-OH; N-terminus and C-terminus assumed), for which, in series [3], the “solubility when diluted in Dimethylsulfoxide (DMSO)” value is “very soluble”. Moreover, the “A2 affinity (in words)” value in the series on A2 class I MHC molecules is listed as “very high affinity”.
The like results for `CC(=O)N[C@H]1[C@@H](O[C@H](C)[C@H](NC(=O)[C@H](CC(=O)O)NC(=O)[C@@H]2CCCN2C(=O)[C@H](Cc2ccccc2)NC(=O)[C@H](CC(C)C)NC(=O)[C@@H](N)Cc2ccccc2)C(=O)N[C@@H](CCCNC(=N)N)C(=O)N[C@@H](Cc2ccc(O)cc2)C(=O)N[C@H](C(=O)O)C(C)C)O[C@H](CO)[C@H](O)[C@@H]1O` [FLFPD(Tn-T)RYV] (H-FLFPDT(αGalNAc)RYV-OH; N-terminus and C-terminus assumed) were, in that order, “very soluble” and “very high affinity”.
For `CC(=O)N[C@H]1[C@@H](O[C@H](C)[C@H](NC(=O)[C@H](CC(=O)O)NC(=O)[C@@H]2CCCN2C(=O)[C@H](CC(C)C)NC(=O)[C@@H](N)Cc2ccccc2)C(=O)N[C@@H](CCCNC(=N)N)C(=O)N[C@@H](Cc2ccccc2)C(=O)N[C@@H](Cc2ccc(O)cc2)C(=O)N[C@H](C(=O)O)C(C)C)O[C@H](CO)[C@H](O)[C@@H]1O` [FLPD(GalNAc-T)RFYV] (H-FLPDT(αGalNAc)RFYV-OH; N-terminus and C-terminus assumed), the “solubility when diluted in Dimethylsulfoxide (DMSO)” value in series [3] is on record as “very soluble”. Also, the “A2 affinity (in words)” value in the series with A2 class I MHC molecules was “very high affinity”.
For the compound `CC(=O)N[C@H]1[C@@H](OC[C@H](NC(=O)[C@H](CO)NC(=O)[C@H](Cc2ccc(O)cc2)NC(=O)[C@H](CC(C)C)NC(=O)CN)C(=O)N[C@H](C(=O)N[C@H](C(=O)N2CCC[C@H]2C(=O)N[C@H](C(=O)O)C(C)C)C(C)C)[C@@H](C)O)O[C@H](CO)[C@H](O)[C@@H]1O` [GLYS(GalNAc-O-S)TVPV], in series [1], the “number … Donor 1” value was found to be 6; the “number … Donor 2” value stood at 2; the “number … Donor 3” value was determined as 1; the “number … Donor 4” value stood at 1. In series [1], the “number … Donor 5” value is recorded as 4; the “number … Donor 6” value is 4; the “number … Donor 7” value is on record as 2; the “Total number of specific CTL lines” value amounted to 20.
For the compound `CC(=O)N[C@H]1[C@@H](OC[C@H](NC(=O)[C@@H](NC(=O)[C@H](CC(C)C)NC(=O)[C@@H](N)[C@@H](C)O)[C@@H](C)O)C(=O)N[C@@H](CS)C(=O)N[C@@H](CC(N)=O)C(=O)N[C@H](C(=O)N[C@@H](CO)C(=O)N[C@H](C(=O)O)C(C)C)[C@@H](C)O)O[C@H](CO)[C@H](O)[C@@H]1O` [TLT(GalNAc-O-S)CNTSV] (H-TLTS(αGalNAc)CNTSV-OH; N-terminus and C-terminus assumed), in series [1], the “number … Donor 1” value is reported as 7; the “number … Donor 2” value is recorded as 4; the “number … Donor 3” value was determined as 0; the “number … Donor 4” value is recorded as 1. In series [1], the “number … Donor 5” value is recorded as 5; the “number … Donor 6” value turned out to be 1; the “number … Donor 7” value stood at 5; the “Total number of specific CTL lines” value was determined as 23.
For `CC(=O)N[C@@H]1[C@@H](O)[C@@H](O)[C@@H](CO)O[C@@H]1O` [Tn, α-GalNAc], the “safety and tolerability in clinical trials” value with cancer patients was “safe and well tolerated”.
In the case of “AIIA(GalNAc-O-S)FAAL (AIIAS(GalNAc)FAAL)”, in the series on MUC1/MT transgenic mice, the “CTL activity after vaccination” value was “Strong CTL activity”.
As for FAPG (β-Gal-[1->3]-α-GalNAc-O-S)YPAL, the “cytolytic response of TF-specific CTL clones to antigen (51Cr release, net lysis)” value in series [2] was “good cytolytic activity”.

The values above are taken from US9156906B2, “Glycopeptides and methods of making and using them” (THE REGENTS OF THE UNIVERSITY OF CALIFORNIA, priority 2008, dated 2015).
